This is an account of results in patent publication US12458597B2, “Carotenoid compositions and uses thereof” (L.E.A.F. HOLDINGS GROUP LLC, priority 2018, dated 2025).

Data set [1] is described as follows: Maximum solubility of trans-crocetin sodium in aqueous media. The class given is physicochemical. Particulars: 5% dextrose (aqueous medium), saline or isotonic; in 5% dextrose. How it is done:
The ethanolic lipid solution containing HSPC, cholesterol, PEG-DSPE, with/without PGPC was added into the aqueous solution using a pipet. During this step the solution was well stirred using a magnetic stirrer. The mixing was performed at an elevated temperature (63° C.-72° C.) to ensure that the lipids are in the liquid crystalline state (as opposed to the gel state they attain at temperatures below the lipid transition temperature (Tm=51° C.-54° C.). As a result, the lipids are hydrated and formed multiple bilayer (multilamellar) vesicles (MLV) containing trans-crocetin sodium in the aqueous core. The MLVs were then downsized by extrusion as described previously.
The ethanolic lipid solution containing HSPC, cholesterol, PEG-DSPE, with/without PGPC and the trans-crocetin sodium aqueous solution were separately transferred to syringes. Two solutions were injected into a microfluidic channel and mixed while flowing through it with Precision NanoSystems' NanoAssemblr® device. The mixing was performed at an elevated temperature (63° C.-72° C.) to ensure that the lipids were in a liquid crystalline state (as opposed to the gel state that they attain at temperatures below the lipid transition temperature (Tm=51° C.-54° C.). The liposome size can be controlled by varying the ratio between lipid solution and aqueous solution, as well as the mixing flow rate.

Data set [2] in a line: Liposomal CTC and MTC PK in mice, plasma STC by HPLC. The class given is in vivo. The conditions noted are these: mouse, single dose, slow intravenous bolus.
Experimental: Sample mixtures were well mixed by vortexing. […] Samples were vortexed and then centrifuged at 10000 RPM for 10 min at room temperature. 200 μL of supernatant was removed from each sample without disturbing pellet and analyzed by HPLC. If the amount of plasma permitted, this analysis was duplicated.
The concentration of STC in the plasma samples was quantified by standard curve constructed by analyzing plasma samples containing known amount of STC. PK profiles were analyzed.
Another data set concerns mouse CLP sepsis model. Kind of data set: CLP sepsis survival Study 1 (TP-936). The class given is in vivo, C57BL/6 mice. The conditions noted are these: CLP mice treated with saline and imipenem (control group); over 5 days. The text has this:
Male and/or female C57BL/6 mice ordered from Envigo Laboratories or the Jackson Lab (Bar Harbor, Maine) were acclimated to housing conditions and handled in accordance with Animal Use Protocol (AUP) number TP-05. The animals were acclimated for approximately 1 week prior to study start. Only animals deemed healthy were included in this study. Animals were fed irradiated Teklad Global Rodent Diet 2918 and water ad libitum. Mice were group housed 5/cage in static cages with irradiated Teklad ⅛″ corn cob bedding 7902 inside bioBubble® Clean Rooms that provide H.E.P. A filtered air into the bubble environment at 100 complete air changes per hour. The environment was controlled to a temperature range of 74°±5° F. and a humidity range of 30-70%. Treatment groups were identified by cage card. Individual mice were identified by indelible marker on the base of the tail. All procedures carried out in this experiment were conducted in compliance with the laws, regulations, and guidelines of the National Institutes of Health and with the approval of the TransPharm Animal Care and Use Committee.
On Day −1, male and/or female mice were anesthetized through use of isoflurane and brought to a surgical plane. […]
Animals were monitored continually post-surgery, at least once every 2-3 minutes for approximately 30 minutes, until the animals had recovered and were able to move about on their own. […]

Setting [3] is: Balb/c, iv, plasma over 24 hour.

In general, solubility refers to the concentration that dissolves in the medium under given conditions. Read a high solubility as much dissolved substance. What is called AUC is concentration integrated over time. Read a low AUC as low exposure. For orientation: half-life means the time needed for the level to fall by half in the phase considered. A higher half-life goes with slow loss. Usually Cmax stands for the highest concentration seen after dosing. With `CC(/C=C/C=C(\C)C(=O)O)=C\C=C\C=C(C)\C=C\C=C(/C)C(=O)O` [STC free drug, sodium trans-crocetinate], in data set [1], the solubility came to 700 µg/mL. In data set [2] (setting [3]), the AUC is 210 µg·h/mL and the half-life is 21 min. In data set [2] (Balb/c mice), the Cmax was 360 µg/mL.
As a reminder, the mortality is the share of the test organisms that died. A higher mortality goes with a strong lethal effect. As for `C[C@@H](O)[C@H]1C(=O)N2C(C(=O)O)=C(SCCN=CN)C[C@H]12` [imipenem], in the data set with mouse CLP sepsis model, the mortality was found to be 50%.
